Like-named read-outs stand apart in the source and are kept apart here.
Key:
protein phosphatase 2A = test: Activation of purified protein phosphatase 2A (32P-histone H1 dephosphorylation); type: biochemical; conditions: 50 μM, 10 min preincubation
Description: 2.1 Preparation of ^32 P-labeled Histone H1 Substrate
Histone H1 was phosphorylated with protein kinase C (Upstate Biotechnology,Inc., Lake Placid, N.Y.) in a volume of 100 μL according to standard protocols. Alternatively, histone H1 was phosphorylated with p34cdc2 kinase purified from rapidly multiplying Mytilus Edulis embryos at 4-8 stage after isolation with the p^13 -Suc agarose technique (Smythe and Newport, 1992, "Coupling of Mitosis to the Completion of S Phase in Xenopus Occurs via Modulation of the Tyrosine Kinase that Phosphorylates p34cdc2," Cell 68:787-797).
125 ng purified protein phosphatase 2A (Upstate Biotechnology, Inc., Lake Placid, N.Y.; Usui et al., 1983, J. Biol. Chem. 258:10455-10463) was preincubated with thyroxine analogue (50 μM) in buffer (20 mM MOPS or Tris, pH 7.5, 1 mM MgCl2, 60 μM β-mercaptoethanol) for 10 min. at 23° C. Total reaction volume was 20 μL. ^32 P-labeled histone H1 substrate (10 μg, 10^5 cpm) was added and the dephosphorylation reaction allowed to proceed for 5 min. at 23° C., after which time the reaction was quenched by addition of 2 μL Laeimli buffer. An identical reaction containing 125 ng untreated protein phosphatase 2A was run as a control.
Phosphorylated and dephosphorylated histone H1 were separated by gel electrophoresis (12% SDS-PAGE), bands containing phosphorylated histone H1 excised and assayed for ^32 P activity via scintillation counter.
The velocity of dephosphorylation in 5 min. is an indication of the initial velocity (Vinit) of the dephosphorylation reaction.

[1] = system: T47D (ductal mammary cancer); test: Cytocidal action/growth inhibition, T47D; type: cell-based; conditions: Homo sapiens, 72 h
Description: Seven human cancer cell lines were obtained from the American Tissue Culture Collection (Rockville, Md.) and maintained in the recommended growth media. Cells were seeded into wells (2 cm^2) at a density of 2×10^4 cells/cm^2. Various concentrations of Compounds 1-13 were added to the media at the time of seeding.
The cultures were incubated for 72 hours at 37° C. (5% CO2 atmosphere). Following incubation, cells were detached with trypsin and counted in a hemocytometer.
I100 designates the concentration at which no viable cells remained; I50 the concentration at which 50% viable cells remained, as compared to a control.
E-ras 20 cells were cultured as reported, Bauer et al., 1996, "Modification of growth related enzymatic pathways and apparent loss of tumorigenicity of a ras-transformed bovine endothelial cell line by treatment with 5-iodo-6-amino-1,2-benzopyrone (INH2 BP)" Intl. J. Oncol. 8:239-252; HT-144 (melanoma), DU-145 (prostatic cancer), HeLa (cervical cancer), HL 60 (promyelocytic leukemia), MDA-MB-231 (mammary cancer), SK-Br-3 (mammary cancer), T47D (ductal mammary cancer), A559 (lung cancer) were obtained from American Type Culture Collection (Rockville, Md.) and cultured in prescribed media. The effect of DIME was tested in cultures with a starting cell density of 2×10^4 cells per cm^2 and comparison of the effect of DIME on cell growth (intact cells identified by Trypan blue exclusion) was assayed by direct cell counting after trypsinization in a hemocytometer 72 hours after drug addition.
For DIME-exposure experiments cells were seeded into 2 cm^2 wells at a density of 2×10^4 cells/cm^2. DIME at various concentrations was added to the medium at the time of seeding. The cell cultures were then incubated for 3 days (37° C. in 5% at CO2 atmosphere).

DIME-esterase = test: Esterase cleavage of DIME in tissue homogenates; type: in vitro ADME; conditions: mouse tissue homogenates
Description: (a) mouse tissue homogenate (brain, kidney, liver lung) consisting of 0.2 g of tissue in 1.0 ml. of homogenization buffer (50 mM Tris (pH 7.4), 400 mM NaCl, 10 mM MgCl2, 1 mM EDTA, 0.5% NP-40, 0.5 mM PMSF) each were combined with 1.0 ml of MES buffer (100 mM ph 6.5) containing 20 μM [^14 C]-DIME (10.55 mCi/mmol), and the mixtures were incubated at 37° C. for 4 hours. Then to each tube was added sequentially ethyl acetate (1.5 ml), ammonium sulfate (900 mg) and 60% perchloric acid (160 μl), with vortexing after each addition. After standing for 10 minutes, phase separation was enhanced by benchtop centrifugation. The upper (ethyl acetate) layer was drawn off, and the lower aqueous and interphase material was extracted with a second portion of ethyl acetate (1.5 ml). The ethyl acetate extracts (combined) contained more than 90% of the total cpm present in the original incubate (ca. 4×10^5 cpm). The extracts were evaporated to dryness using a stream of N^2, the respective residues taken up in ethyl acetate (100 μl) and aliquots (10 μl) spotted on analytical silica-gel TLC plates (Whatman PE SIL G/UV flexible plates 250 μm thickness, 10 cm×20 cm) and developed with 3:1:0.8 v:v:v n-hexane/ethyl acetate/ethanol. Analyte bands, including [^14 C]-DIME as reference standard, were visualized by autoradiography. […]
radioactivity of the [^14 C]-DIME was 20,470 cpm/nmol.

A-549 cells = test: DIME action on A-549 cells with esterase inhibitor BNPP; type: cell-based, human; conditions: with bis[p-nitrophenyl] phosphate

With `COC(=O)c1cc(I)c(Oc2ccc(OC)cc2)c(I)c1` [Compound 1, Methyl 3,5-diiodo-4-(4'-methoxyphenoxy)benzoate] the “Activity/5 min (initial velocity of histone H1 dephosphorylation)” value (protein phosphatase 2A; control 10217 ± 1708, average of three samples) was 24655 ± 8600 cpm, the “increase of Vinit of histone H1 dephosphorylation” value (protein phosphatase 2A) was “more than doubles Vinit” and the IC50 ([1]; Table 4, read-out: I50) was 700 nM. For the same molecule, the IC100 ([1]; Table 4, read-out: I100 (no viable cells remained)) was 3.5 µM, the IC50 ([1]; day 3, Table 11, read-out: I50 (day 3)) was 700 nM and the “DIME-esterase activity” value (DIME-esterase) was “highest rate of "DIME-esterase" activity occurred in brain homogenates”. The “cell killing with esterase inhibition” value (A-549 cells) was “much more effective cell killing”.

Reference: patent US6017958A, “Method of treating malignant tumors with thyroxine analogues having no significant hormonal activity” (Octamer, Inc., priority 1997, dated 2000)
